Biological target: T1, human kidney renin (Homo sapiens, UniProt P00797)
T1 construct: Human renin was prepared from human kidney; from tissue; host or cells: human kidney
T1 sequence (P00797 67-406): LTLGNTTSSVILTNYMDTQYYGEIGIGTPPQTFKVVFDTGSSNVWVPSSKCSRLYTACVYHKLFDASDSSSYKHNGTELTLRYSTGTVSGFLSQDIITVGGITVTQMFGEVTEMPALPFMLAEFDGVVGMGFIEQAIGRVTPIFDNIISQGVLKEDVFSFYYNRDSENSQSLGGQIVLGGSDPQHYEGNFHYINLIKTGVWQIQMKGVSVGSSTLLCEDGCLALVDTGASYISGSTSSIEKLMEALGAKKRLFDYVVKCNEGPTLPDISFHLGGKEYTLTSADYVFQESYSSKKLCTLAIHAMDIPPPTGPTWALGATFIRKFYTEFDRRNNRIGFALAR
Experiment: Radioimmunoassay Screen for Renin Inhibitors (in vitro angiotensin I generation, quantitated by radioimmunoassay)
Type: biochemical
Details: purified human plasma angiotensinogen, pH 6.0, one hour at 37° C., read-out: Renin Inhibiton IC50
Method: The in vitro method for the screening of anti-renin compounds involves, first, angiotensin I generation, and second, the quantitation of the angiotensin I produced by radioimmunoassay.
The incubation medium consisted of 20 μl of purified human plasma angiotensinogen (1); 10 μl of human kidney renin (2); 5 μl of phenylmethylsulfonyl fluoride; 10 μl of disodium EDTA (10 mM); 10 μl of antirenin compound (5×10^-3, 5×10^-4, 5×10^-5) in dimethylformamide, or ethanol and a suitable amount of maleate buffer (77 mM, pH 6.0) to make a final volume of 500 μl. The reaction mixture was incubated for one hour at 37° C. and the enzymatic reaction was stopped by placing the tube in ice-cold water. The angiotensin I generated during the incubation was measured by a radioimmunoassay plasma renin activity kit (Clinical Assays, Inc.).
The incubation medium consisted of either 100 μl aliquots of the above reaction mixture or a standard amount of angiotensin I; 1000 μl of phosphate buffer (100 mM, pH 7.6) and 100 μl of (^125 I)angiotensinin a gamma-coat, tube. After three hours of incubation at room temperature, the tubes were decanted, and the radioactivity of each tube was determined in a gamma counter. Duplicate determinations were performed for each incubation. The results were expressed in ng of angiotensin I generated per ml of generation medium per hour of incubation (ng/AI/ml/hr).
(1) The human plasma angiotensinogen derived from the blood of a person receiving oral contraceptive pills was purified by chromatography on a pepstatinaminohexyl-agarose column.
(2) Human renin was prepared from human kidney.

Structure (SMILES) | IC50 [nM]
CC(C)C[C@H](NC(=O)[C@@H](CC(=O)N1CCOCC1)Cc1ccccc1)C(=O)N[C@@H](CC1CCCCC1)[C@@H](O)c1nccs1 | 80000
O=C(N[C@@H](Cc1c[nH]cn1)C(=O)N[C@@H](CC1CCCCC1)[C@@H](O)c1nccs1)[C@@H](CC(=O)N1CCOCC1)Cc1ccccc1 | 15000
CC(C)C[C@H](NC(=O)[C@@H](CC(=O)NC(C)(C)C)Cc1ccccc1)C(=O)N[C@@H](CC(C)C)[C@@H](O)c1nccs1 | 67000
CC(C)C[C@H](NC(=O)[C@H](Cc1c[nH]cn1)NC(=O)[C@@H](CC(=O)NC(C)(C)C)Cc1ccccc1)[C@@H](O)c1nccs1 | 65000
CC(C)C[C@H](NC(=O)[C@@H](CC(=O)OC(C)(C)C)Cc1cccc2ccccc12)C(=O)N[C@@H](CC(C)C)[C@@H](O)c1nccs1 | 550
CC(C)C[C@H](NC(=O)[C@@H](CC(=O)OC(C)(C)C)Cc1cccs1)C(=O)N[C@@H](CC(C)C)[C@@H](O)c1nccs1 | 100000
CC(C)C[C@H](NC(=O)[C@@H](CC(=O)N1CCOCC1)Cc1cccc2ccccc12)C(=O)N[C@@H](CC(C)C)[C@@H](O)c1nccs1 | 250
CC(C)C[C@H](NC(=O)[C@@H](CC(=O)NCCc1ccccc1)Cc1cccc2ccccc12)C(=O)N[C@@H](CC(C)C)[C@@H](O)c1nccs1 | 730
Cn1cccc1CCNC(=O)C[C@@H](Cc1cccc2ccccc12)C(=O)N[C@@H](Cc1cnc[nH]1)C(=O)N[C@@H](CC1CCCCC1)[C@@H](O)c1nccs1 | 340
O=C(N[C@@H](Cc1cnc[nH]1)C(=O)N[C@@H](CC1CCCCC1)[C@@H](O)c1cccs1)[C@@H](CC(=O)N1CCOCC1)Cc1cccc2ccccc12 | 270
CC(C)C[C@H](NC(=O)[C@H](Cc1ccccc1)OC(=O)N1CCOCC1)C(=O)N[C@@H](CC1CCCCC1)[C@@H](O)c1ccccn1 | 770
CC(C)C[C@H](NC(=O)[C@H](Cc1ccccc1)OC(=O)N1CCOCC1)C(=O)N[C@@H](CC1CCCCC1)[C@@H](O)c1cccs1 | 270
CC(C)C[C@H](NC(=O)[C@H](Cc1ccccc1)OC(=O)N1CCSCC1)C(=O)N[C@@H](CC1CCCCC1)[C@@H](O)c1cccs1 | 500
CC(C)C[C@H](NC(=O)[C@H](Cc1ccccc1)OC(=O)N1CCSCC1)C(=O)N[C@@H](CC1CCCCC1)[C@@H](O)c1ccccn1 | 840
CC(C)C[C@H](NC(=O)[C@H](Cc1ccccc1)OC(=O)N1CCOCC1)C(=O)N[C@@H](CC1CCCCC1)[C@@H](O)c1ccco1 | 100
CC(C)C[C@H](NC(=O)[C@H](Cc1ccccc1)OC(=O)N1CCSCC1)C(=O)N[C@@H](CC1CCCCC1)[C@@H](O)c1ccco1 | 47
CC(C)C[C@H](NC(=O)[C@@H](CC(=O)N1CCOCC1)Cc1cccc2ccccc12)C(=O)N[C@@H](CC1CCCCC1)[C@@H](O)c1ccco1 | 8.8
CC(C)C[C@H](NC(=O)[C@H](Cc1ccccc1)OC(=O)N1CCOCC1)C(=O)N[C@@H](CC1CCCCC1)[C@@H](O)c1nccs1 | 11
O=C(N[C@@H](Cc1cnc[nH]1)C(=O)N[C@@H](CC1CCCCC1)[C@@H](O)c1ccco1)[C@@H](CC(=O)N1CCOCC1)Cc1cccc2ccccc12 | 4.9
CC(=O)N1CCN(C(=O)O[C@@H](Cc2ccccc2)C(=O)N[C@@H](CC(C)C)C(=O)N[C@@H](CC2CCCCC2)[C@@H](O)c2ccco2)CC1 | 42
COCCNC(=O)O[C@@H](Cc1ccccc1)C(=O)N[C@@H](CC(C)C)C(=O)N[C@@H](CC1CCCCC1)[C@@H](O)c1ccco1 | 1700
CC(C)C[C@H](NC(=O)[C@H](Cc1ccccc1)OC(=O)N1CCC2(CC1)OCCO2)C(=O)N[C@@H](CC1CCCCC1)[C@@H](O)c1ccco1 | 210
CC(C)C[C@H](NC(=O)[C@H](CC1CCCCC1)OC(=O)N1CCOCC1)C(=O)N[C@@H](CC1CCCCC1)[C@@H](O)c1ccco1 | 180
CC(C)C[C@H](NC(=O)[C@H](Cc1ccccc1)OC(=O)N1CCNC(=O)C1)C(=O)N[C@@H](CC1CCCCC1)[C@@H](O)c1ccco1 | 0.19
CC(C)C[C@H](NC(=O)[C@H](Cc1ccccc1)OC(=O)N1CCC(=O)CC1)C(=O)N[C@@H](CC1CCCCC1)[C@@H](O)c1ccco1 | 58
